This note sets out measurements from patent publication US12503455B2, “Nucleic acid-binding photoprobes and uses thereof” (Arrakis Therapeutics, Inc., priority 2017, dated 2025).

The subject of assay [1] is Aptamer 21. The assay can be described thus: Biotin-photoaffinity probe cross-linking and streptavidin bead pull-down gel assay. The assay is classed as binding. The settings on record: Aptamer 21 compared with Aptamer 21-E.
For assay [2], the system named is Aptamer 21. The assay can be described thus: Capture of Aptamer 21 from a defined mixture of RNAs. It is filed as binding. Here is the method: A sample of folded RNA was prepared containing 1 μM each of Myc HP PA, Aptamer 21, FMN, MYC_3WJ-HP_N3G, and PreQ1 RNAs in folding buffer (20 mM TrisHCl pH 8, 100 mM KCl, 3 mM MgCl2). A 95 μL sample of this solution was added to a 5 μL aliquot of 0.2 mM ARK-670 (probe) or ARK-139 (control) in DMSO. The reaction was incubated for 30 min at 37° C., irradiated with long wave UV light (˜365 nm) for 30 min in a UV crosslinker (Fisher Scientific), and then cooled on ice. The excess probe and buffer was then removed by passing the sample through an Illustra MicroSpin G-25 spin column (GE Healthcare) according to the manufacturer's protocol.
For each treatment, a 75 μL aliquot of the crosslinked RNA was mixed with 0.75 μL of 10% Tween-20 and 0.45 μL of 0.5 M EDTA pH 8 solution. A 50 μL aliquot of MyOne Streptavidin C1 Dynabead slurry (Thermo) was captured on a magnet, washed twice with 50 μL of 1× bind/wash buffer (20 mM TrisHCl pH 7, 100 mM KCl, 0.1% Tween-20), and then resuspended in 50 μL of the crosslinked RNA sample. The bead suspension was rotated at room temperature for 60 min and then washed twice with 100 μL of 1× bind/wash solution. […]
To remove excess primer, the sample was mixed with 4.5 μL of ExoSAP-IT, incubated at 37° C. for 15 min, and then quenched with 1 μL of 0.5 M EDTA pH 8. […] The concentration was determined by absorbance at 260 nm. […]

In the case of `COC(=O)C1=C(COCc2cn(CCOCCOCCNC(=O)[C@H](CCCCNC(=O)c3ccc(N=[N+]=[N-])cc3)NC(=O)CCCC[C@@H]3SC[C@@H]4NC(=O)N[C@@H]43)nn2)NC(c2ccncc2)=NC1c1ccc(F)cc1Cl` (stereo partly drawn) [ARK-670], the “pull-down of RNA on streptavidin beads after cross-linking” value in the assay with Aptamer 21 [1] is recorded as “Only the Aptamer 21 RNA showed significant pull-down”. In addition, in the assay on Aptamer 21 [2] (Aptamer 21, Aptamer 21-E, or mixture of Aptamer 21 and four other RNAs), the “RT pausing signal from probe adducts” value is “specific for Aptamer 21”. The “enrichment of RNAs after cross-linking, avidin bead enrichment and sequencing” value with Aptamer 21 [2] (mixture of Aptamer 21 and four other RNAs) is “only Aptamer 21 was enriched”.
